Here are results for one compound from patent US12669505B2, “Detection of desmoglein-2 in cancers of epithelial origin” (HDT Bio Corp., priority 2019, dated 2026).

The assay concerns ovarian cancer cell lines (OV-CAR). Kind of assay: Western blot of DSG2 in OV-CAR cell supernatants after cisplatin treatment. The format is cell-based. As for the experimental part:
FIGS. 5A, 5B and 5C (collectively FIGS. 5A-5C) show the effect of DSG2 expression in response to cisplatin.
Western Blot. Mini-PROTEAN precast gels (BIO-RAD, Hercules, CA) with 4-15% gradient polyacrylamide are used. A total of 1 μg protein mixed with 2× loading buffer (10 mM Tris-HCl, pH 6.8, 200 mM DTT, 4% SDS, 20% glycerol, 0.2% bromophenol blue) is loaded per lane. Samples are either boiled (B) for 5 min or loaded unboiled (UB). The following running buffer is used: 25 mM Tris, pH 8.3, 0.192 M glycine, 0.1% SDS. After electrophoresis, proteins are transferred to nitrocellulose and incubated with the corresponding antibodies. For detection of DSG2 binding, filters are incubated with recombinant human DSG2 protein and anti-DSG2 antibody 6D8 as described (Wang et al. Nat Med. 2011; 17(1):96-104). Other Western blots use a primary mouse monoclonal antibody followed by an anti-mouse IgG HRP conjugate. Selected Western blots are scanned and quantified using the ImageJ 1.32 software (National Institutes of Health, Bethesda, MD).
In this Example, a potential mode of chemoresistance was investigated, DSG2 protein levels were determined in cancer cells after treatment with cisplatin, a commonly used platinum-based therapeutic used as first-line treatment of ovarian cancer and its metastases.
Cell supernatants from ovarian cancer cell lines (OV-CAR) were first interrogated with monoclonal and polyclonal anti-DSG2 antibodies to confirm specificity of the antibodies. […] Within 2 days of cisplatin treatment, the presence of cleaved DSG2, a product of DSG2 shedding, was detected in cell supernatant (FIGS. 5A and 5B). Quantitative analysis of the blot intensity indicated DSG2 peaking at 2 days after cisplatin treatment.
A general note: A western blot detects proteins with antibodies after separation by electrophoresis.

Each structure is given as a SMILES string.

Turning to `N.N.[Cl][Pt][Cl]` [cisplatin], where the note is “OV-CAR cells, after cisplatin treatment, ImageJ, day 0 as control”, the “time of DSG2 peak by quantitative analysis of blot intensity” value is recorded as 2 days. Besides, where the note is “OV-CAR cells, after cisplatin treatment, Western blot”, the “time until cleaved DSG2 (product of DSG2 shedding) was detected in cell supernatant” value is on record as no more than 2 days. For the setting “cisplatin treatment”, the “DSG2 response of ovarian cancer cells to treatment” value is “upregulated and shed in increased amounts”.
